{"source": "paper PMC6658524", "about": "“Lysosomal degradation of newly formed insulin granules contributes to β cell failure in diabetes” (Nature Communications, 2019)", "assay_in_all_cases": "biochemical", "set-up_in_all_cases": "Eurofins KinaseProfiler panel of 60 kinases, per cent inhibition", "key": {"[1]": {"molecular_target": "T1, Ron(h) (Homo sapiens, UniProt Q04912)", "T1 construct": "gene MST1R", "description": "(§1) A more detailed account of the discovery, chemistry and biochemical properties of this novel class of selective p38δ inhibitors will be given elsewhere."}, "[2]": {"molecular_target": "EphB4(h) (Homo sapiens, UniProt P54760)", "description": "as §1"}, "[3]": {"molecular_target": "T2, CaMKIIδ(h) (Homo sapiens, UniProt Q13557)", "T2 construct": "gene CAMK2D", "T2 sequence (Q13557 whole entry)": "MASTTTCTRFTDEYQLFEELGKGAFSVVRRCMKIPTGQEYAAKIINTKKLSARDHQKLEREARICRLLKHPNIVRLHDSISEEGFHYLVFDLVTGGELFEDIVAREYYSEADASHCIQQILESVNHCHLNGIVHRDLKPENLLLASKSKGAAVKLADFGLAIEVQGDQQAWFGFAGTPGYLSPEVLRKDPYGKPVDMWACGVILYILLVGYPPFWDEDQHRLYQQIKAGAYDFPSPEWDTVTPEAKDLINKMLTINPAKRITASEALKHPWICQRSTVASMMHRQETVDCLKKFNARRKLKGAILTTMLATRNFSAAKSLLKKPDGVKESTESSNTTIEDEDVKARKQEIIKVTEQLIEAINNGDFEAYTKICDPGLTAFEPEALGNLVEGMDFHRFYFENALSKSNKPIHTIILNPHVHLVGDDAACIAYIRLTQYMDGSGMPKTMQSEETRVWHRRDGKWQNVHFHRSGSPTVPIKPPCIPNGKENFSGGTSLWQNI", "description": "as §1"}, "[4]": {"molecular_target": "BrSK2(h) (Homo sapiens, UniProt Q8IWQ3)", "description": "as §1"}, "[5]": {"molecular_target": "Plk1(h) (Homo sapiens, UniProt P53350)", "description": "as §1"}, "[6]": {"molecular_target": "T3, Abl(h) (Homo sapiens, UniProt P00519)", "T3 construct": "gene ABL1", "T3 sequence (P00519 whole entry)": "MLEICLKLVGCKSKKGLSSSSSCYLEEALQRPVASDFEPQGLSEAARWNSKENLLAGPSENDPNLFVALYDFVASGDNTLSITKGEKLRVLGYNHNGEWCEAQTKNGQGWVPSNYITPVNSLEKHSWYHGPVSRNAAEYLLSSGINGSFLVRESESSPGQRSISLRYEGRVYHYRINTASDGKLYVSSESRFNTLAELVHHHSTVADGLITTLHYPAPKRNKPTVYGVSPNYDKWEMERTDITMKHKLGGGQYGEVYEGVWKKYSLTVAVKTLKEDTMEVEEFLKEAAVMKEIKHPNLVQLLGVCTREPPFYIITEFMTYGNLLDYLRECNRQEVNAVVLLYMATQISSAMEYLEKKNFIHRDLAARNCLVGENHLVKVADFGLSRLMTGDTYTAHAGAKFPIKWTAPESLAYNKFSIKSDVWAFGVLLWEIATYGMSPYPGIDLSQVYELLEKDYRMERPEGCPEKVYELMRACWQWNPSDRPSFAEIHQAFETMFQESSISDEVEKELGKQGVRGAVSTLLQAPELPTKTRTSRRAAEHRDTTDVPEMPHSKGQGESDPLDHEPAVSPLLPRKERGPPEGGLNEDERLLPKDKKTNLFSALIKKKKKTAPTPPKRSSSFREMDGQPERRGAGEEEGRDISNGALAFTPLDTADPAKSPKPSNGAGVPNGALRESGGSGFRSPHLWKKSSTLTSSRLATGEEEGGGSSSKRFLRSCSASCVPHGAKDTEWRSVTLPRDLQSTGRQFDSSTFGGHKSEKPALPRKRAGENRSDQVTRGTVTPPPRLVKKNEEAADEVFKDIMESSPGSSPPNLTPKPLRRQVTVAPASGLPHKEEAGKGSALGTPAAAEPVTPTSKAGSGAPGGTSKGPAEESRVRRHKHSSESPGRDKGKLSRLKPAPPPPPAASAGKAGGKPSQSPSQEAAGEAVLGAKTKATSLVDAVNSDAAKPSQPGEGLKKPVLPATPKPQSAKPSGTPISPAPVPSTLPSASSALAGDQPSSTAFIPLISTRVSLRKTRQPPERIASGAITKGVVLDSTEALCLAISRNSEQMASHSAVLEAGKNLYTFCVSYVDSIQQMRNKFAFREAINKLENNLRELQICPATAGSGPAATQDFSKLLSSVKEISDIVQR", "description": "as §1"}, "[7]": {"molecular_target": "mTOR(h) (Homo sapiens, UniProt P42345)", "description": "as §1"}, "[8]": {"molecular_target": "KDR(h) (Homo sapiens, UniProt P35968)", "sequence (P35968 whole entry)": "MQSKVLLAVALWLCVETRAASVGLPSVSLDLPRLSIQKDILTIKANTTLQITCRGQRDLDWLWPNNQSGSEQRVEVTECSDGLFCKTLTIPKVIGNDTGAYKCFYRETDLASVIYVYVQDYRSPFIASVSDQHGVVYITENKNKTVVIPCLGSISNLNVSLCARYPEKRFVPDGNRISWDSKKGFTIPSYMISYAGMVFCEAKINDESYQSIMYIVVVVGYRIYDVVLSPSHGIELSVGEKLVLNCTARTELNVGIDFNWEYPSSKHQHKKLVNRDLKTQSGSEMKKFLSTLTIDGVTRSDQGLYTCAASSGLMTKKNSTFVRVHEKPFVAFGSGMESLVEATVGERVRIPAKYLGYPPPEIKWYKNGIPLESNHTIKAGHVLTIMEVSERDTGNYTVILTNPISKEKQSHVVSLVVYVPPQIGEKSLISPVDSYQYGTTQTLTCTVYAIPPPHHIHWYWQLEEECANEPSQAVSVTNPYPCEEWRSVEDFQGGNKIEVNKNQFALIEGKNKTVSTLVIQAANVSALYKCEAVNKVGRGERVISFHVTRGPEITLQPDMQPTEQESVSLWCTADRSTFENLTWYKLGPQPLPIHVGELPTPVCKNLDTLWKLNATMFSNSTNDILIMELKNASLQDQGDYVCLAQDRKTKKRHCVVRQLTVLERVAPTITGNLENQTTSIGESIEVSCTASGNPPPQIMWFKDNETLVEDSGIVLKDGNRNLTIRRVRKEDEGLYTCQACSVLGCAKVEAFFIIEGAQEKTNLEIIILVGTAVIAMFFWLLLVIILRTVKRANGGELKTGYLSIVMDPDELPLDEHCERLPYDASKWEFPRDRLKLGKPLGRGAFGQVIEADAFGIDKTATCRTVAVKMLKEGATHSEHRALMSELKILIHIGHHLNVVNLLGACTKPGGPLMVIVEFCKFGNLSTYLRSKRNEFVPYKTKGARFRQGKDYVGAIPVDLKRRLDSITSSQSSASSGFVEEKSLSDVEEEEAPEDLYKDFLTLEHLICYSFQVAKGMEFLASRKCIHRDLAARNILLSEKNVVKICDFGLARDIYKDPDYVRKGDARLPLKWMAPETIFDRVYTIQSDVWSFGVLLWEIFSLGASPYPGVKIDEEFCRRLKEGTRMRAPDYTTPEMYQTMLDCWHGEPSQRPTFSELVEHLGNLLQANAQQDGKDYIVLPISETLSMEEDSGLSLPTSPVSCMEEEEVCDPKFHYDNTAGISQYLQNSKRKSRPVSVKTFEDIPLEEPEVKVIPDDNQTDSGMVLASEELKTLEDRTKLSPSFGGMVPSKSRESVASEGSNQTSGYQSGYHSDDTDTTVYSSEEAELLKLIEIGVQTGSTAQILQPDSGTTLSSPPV", "description": "as §1"}, "[9]": {"molecular_target": "LRRK2(h) (Homo sapiens, UniProt Q5S007)", "description": "as §1"}, "[10]": {"molecular_target": "JAK3(h) (Homo sapiens, UniProt P52333)", "description": "as §1"}, "[11]": {"molecular_target": "Flt3(h) (Homo sapiens, UniProt P36888)", "description": "as §1"}, "[12]": {"molecular_target": "T4, Pim-2(h) (Homo sapiens, UniProt Q9P1W9)", "T4 construct": "gene PIM2", "T4 sequence (Q9P1W9 whole entry)": "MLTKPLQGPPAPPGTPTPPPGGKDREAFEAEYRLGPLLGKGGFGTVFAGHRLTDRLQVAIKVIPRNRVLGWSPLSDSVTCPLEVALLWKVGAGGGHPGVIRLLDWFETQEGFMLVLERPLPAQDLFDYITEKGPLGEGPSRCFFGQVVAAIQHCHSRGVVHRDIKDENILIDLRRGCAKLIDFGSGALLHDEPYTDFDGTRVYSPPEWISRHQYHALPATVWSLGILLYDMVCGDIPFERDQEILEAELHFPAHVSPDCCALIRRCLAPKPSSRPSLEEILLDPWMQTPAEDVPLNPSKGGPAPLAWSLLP", "description": "as §1"}, "[13]": {"molecular_target": "T5, p70S6K(h) (Homo sapiens, UniProt P23443)", "T5 construct": "gene RPS6KB1", "description": "as §1"}, "[14]": {"molecular_target": "T6, MST2(h) (Homo sapiens, UniProt Q13188)", "T6 construct": "gene STK3", "description": "as §1"}, "[15]": {"molecular_target": "CDK1/cyclinB(h) (Homo sapiens, UniProt P06493)", "sequence (P06493 whole entry)": "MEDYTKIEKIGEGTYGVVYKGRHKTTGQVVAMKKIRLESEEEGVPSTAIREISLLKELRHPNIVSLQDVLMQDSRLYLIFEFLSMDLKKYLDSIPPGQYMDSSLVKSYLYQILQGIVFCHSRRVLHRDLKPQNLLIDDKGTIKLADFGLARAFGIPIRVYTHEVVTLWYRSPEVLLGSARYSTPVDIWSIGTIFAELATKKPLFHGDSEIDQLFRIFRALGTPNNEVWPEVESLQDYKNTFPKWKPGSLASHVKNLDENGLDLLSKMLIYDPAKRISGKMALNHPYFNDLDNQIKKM", "sequence (P14635 whole entry partner)": "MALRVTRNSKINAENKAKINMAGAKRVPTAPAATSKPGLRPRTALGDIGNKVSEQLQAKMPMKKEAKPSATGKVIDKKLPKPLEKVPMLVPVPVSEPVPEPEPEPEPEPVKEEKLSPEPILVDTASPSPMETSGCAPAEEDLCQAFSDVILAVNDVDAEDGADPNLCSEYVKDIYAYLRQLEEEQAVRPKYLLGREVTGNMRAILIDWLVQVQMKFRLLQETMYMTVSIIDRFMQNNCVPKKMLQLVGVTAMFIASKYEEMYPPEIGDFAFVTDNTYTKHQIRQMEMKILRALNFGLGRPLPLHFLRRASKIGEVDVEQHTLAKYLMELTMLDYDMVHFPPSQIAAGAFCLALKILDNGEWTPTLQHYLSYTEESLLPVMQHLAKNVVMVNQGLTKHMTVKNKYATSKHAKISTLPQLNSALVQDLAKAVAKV", "description": "as §1"}, "[16]": {"molecular_target": "T7, SAPK2a(h) (Homo sapiens, UniProt Q16539)", "T7 construct": "gene MAPK14", "T7 sequence (Q16539 whole entry)": "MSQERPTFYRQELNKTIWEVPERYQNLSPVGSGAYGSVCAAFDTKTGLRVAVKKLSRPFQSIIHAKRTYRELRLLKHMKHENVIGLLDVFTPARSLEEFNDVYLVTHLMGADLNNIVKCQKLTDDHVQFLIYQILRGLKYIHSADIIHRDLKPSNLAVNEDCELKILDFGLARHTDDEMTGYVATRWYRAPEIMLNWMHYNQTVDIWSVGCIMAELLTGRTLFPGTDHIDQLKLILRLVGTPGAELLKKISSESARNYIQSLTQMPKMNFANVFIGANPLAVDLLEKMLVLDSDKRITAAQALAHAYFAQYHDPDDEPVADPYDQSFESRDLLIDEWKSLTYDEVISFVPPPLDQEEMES", "description": "as §1"}, "[17]": {"molecular_target": "DYRK2(h) (Homo sapiens, UniProt Q92630)", "description": "as §1"}, "[18]": {"molecular_target": "EphB1(h) (Homo sapiens, UniProt P54762)", "description": "as §1"}, "[19]": {"molecular_target": "T8, PEK(h) (Homo sapiens, UniProt Q9NZJ5)", "T8 construct": "gene EIF2AK3", "description": "as §1"}, "[20]": {"molecular_target": "EphA1(h) (Homo sapiens, UniProt P21709)", "description": "as §1"}, "[21]": {"molecular_target": "T9, CDK5/p25(h) (Homo sapiens, UniProt Q00535)", "T9 construct": "p25", "T9 sequence (Q00535 whole entry)": "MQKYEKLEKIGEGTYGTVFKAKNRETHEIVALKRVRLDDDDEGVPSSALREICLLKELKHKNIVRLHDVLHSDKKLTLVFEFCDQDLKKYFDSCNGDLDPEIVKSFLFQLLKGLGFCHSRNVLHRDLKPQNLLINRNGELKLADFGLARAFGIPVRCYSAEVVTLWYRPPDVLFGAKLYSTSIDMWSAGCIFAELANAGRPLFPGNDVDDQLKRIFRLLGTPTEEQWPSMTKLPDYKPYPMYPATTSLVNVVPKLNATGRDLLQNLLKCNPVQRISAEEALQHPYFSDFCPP", "T9 sequence (Q15078 whole entry partner)": "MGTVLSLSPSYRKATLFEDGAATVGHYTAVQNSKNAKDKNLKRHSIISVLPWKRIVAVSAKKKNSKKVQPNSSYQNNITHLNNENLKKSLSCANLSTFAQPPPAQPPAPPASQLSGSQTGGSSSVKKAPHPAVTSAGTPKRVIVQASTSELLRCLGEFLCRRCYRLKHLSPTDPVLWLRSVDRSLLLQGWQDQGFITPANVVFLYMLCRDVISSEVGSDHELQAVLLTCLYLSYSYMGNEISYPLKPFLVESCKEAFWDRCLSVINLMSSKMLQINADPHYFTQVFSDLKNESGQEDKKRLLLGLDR", "description": "as §1"}, "[22]": {"molecular_target": "T10, SAPK3(h) (Homo sapiens, UniProt P53778)", "T10 construct": "gene MAPK12", "description": "as §1"}, "[23]": {"molecular_target": "FGFR1(h) (Homo sapiens, UniProt P11362)", "description": "as §1"}, "[24]": {"molecular_target": "BTK(h) (Homo sapiens, UniProt Q06187)", "description": "as §1"}, "[25]": {"molecular_target": "EGFR(h) (Homo sapiens, UniProt P00533)", "description": "as §1"}}, "data": [{"smiles": "CCN1CCOc2nc(N3CCOCC3)nc(-c3ccc(NC(=O)OC)cc3)c2C1=O", "note": "[Compound A]", "values": [{"measurement": "inhibition at 1 µM", "setting": "[1]", "value": 10, "unit": "%"}, {"measurement": "inhibition at 10 µM", "setting": "[1]", "value": 9, "unit": "%"}, {"measurement": "inhibition at 1 µM", "setting": "[2]", "value": -3, "unit": "%"}, {"measurement": "inhibition at 10 µM", "setting": "[2]", "value": 8, "unit": "%"}, {"measurement": "inhibition at 1 µM", "setting": "[3]", "value": -6, "unit": "%"}, {"measurement": "inhibition at 10 µM", "setting": "[3]", "value": 1, "unit": "%"}, {"measurement": "inhibition at 1 µM", "setting": "[4]", "value": 5, "unit": "%"}, {"measurement": "inhibition at 10 µM", "setting": "[4]", "value": 5, "unit": "%"}, {"measurement": "inhibition at 1 µM", "setting": "[5]", "value": 2, "unit": "%"}, {"measurement": "inhibition at 10 µM", "setting": "[5]", "value": 11, "unit": "%"}, {"measurement": "inhibition at 1 µM", "setting": "[6]", "value": 6, "unit": "%"}, {"measurement": "inhibition at 10 µM", "setting": "[6]", "value": 8, "unit": "%"}, {"measurement": "inhibition at 1 µM", "setting": "[7]", "value": -1, "unit": "%"}, {"measurement": "inhibition at 1 µM", "setting": "[8]", "value": -16, "unit": "%"}, {"measurement": "inhibition at 10 µM", "setting": "[8]", "value": -12, "unit": "%"}, {"measurement": "inhibition at 1 µM", "setting": "[9]", "value": -18, "unit": "%"}, {"measurement": "inhibition at 10 µM", "setting": "[9]", "value": -11, "unit": "%"}, {"measurement": "inhibition at 1 µM", "setting": "[10]", "value": 0, "unit": "%"}, {"measurement": "inhibition at 10 µM", "setting": "[10]", "value": -5, "unit": "%"}, {"measurement": "inhibition at 1 µM", "setting": "[11]", "value": -30, "unit": "%"}, {"measurement": "inhibition at 10 µM", "setting": "[11]", "value": -25, "unit": "%"}, {"measurement": "inhibition at 1 µM", "setting": "[12]", "value": 8, "unit": "%"}, {"measurement": "inhibition at 10 µM", "setting": "[12]", "value": 7, "unit": "%"}, {"measurement": "inhibition at 1 µM", "setting": "[13]", "value": 15, "unit": "%"}, {"measurement": "inhibition at 1 µM", "setting": "[14]", "value": -16, "unit": "%"}, {"measurement": "inhibition at 10 µM", "setting": "[14]", "value": -2, "unit": "%"}, {"measurement": "inhibition at 1 µM", "setting": "[15]", "value": -5, "unit": "%"}, {"measurement": "inhibition at 10 µM", "setting": "[15]", "value": 4, "unit": "%"}, {"measurement": "inhibition at 1 µM", "setting": "[16]", "value": -16, "unit": "%"}, {"measurement": "inhibition at 10 µM", "setting": "[16]", "value": 9, "unit": "%"}, {"measurement": "inhibition at 1 µM", "setting": "[17]", "value": -10, "unit": "%"}, {"measurement": "inhibition at 10 µM", "setting": "[17]", "value": -10, "unit": "%"}, {"measurement": "inhibition at 1 µM", "setting": "[18]", "value": 6, "unit": "%"}, {"measurement": "inhibition at 10 µM", "setting": "[18]", "value": 10, "unit": "%"}, {"measurement": "inhibition at 1 µM", "setting": "[19]", "value": -12, "unit": "%"}, {"measurement": "inhibition at 10 µM", "setting": "[19]", "value": -11, "unit": "%"}, {"measurement": "inhibition at 1 µM", "setting": "[20]", "value": 0, "unit": "%"}, {"measurement": "inhibition at 10 µM", "setting": "[20]", "value": 7, "unit": "%"}, {"measurement": "inhibition at 1 µM", "setting": "[21]", "value": -2, "unit": "%"}, {"measurement": "inhibition at 10 µM", "setting": "[21]", "value": -2, "unit": "%"}, {"measurement": "inhibition at 1 µM", "setting": "[22]", "value": 11, "unit": "%"}, {"measurement": "inhibition at 1 µM", "setting": "[23]", "value": 9, "unit": "%"}, {"measurement": "inhibition at 10 µM", "setting": "[23]", "value": 6, "unit": "%"}, {"measurement": "inhibition at 1 µM", "setting": "[24]", "value": -1, "unit": "%"}, {"measurement": "inhibition at 10 µM", "setting": "[24]", "value": 0, "unit": "%"}, {"measurement": "inhibition at 1 µM", "setting": "[25]", "value": -17, "unit": "%"}, {"measurement": "inhibition at 10 µM", "setting": "[25]", "value": 4, "unit": "%"}]}]}
